Patent publication US7262185B2, “Benzazepine derivative, process for producing the same, and use” (Takeda Chemical Industries Ltd., priority 2001, dated 2007)

Molecular target: T1, human CCR5 chemokine receptor (Homo sapiens, UniProt P51681)
T1 construct: expressed in transfected cells
Assay: Inhibition of [125I]-RANTES binding to CCR5/CHO cells (CCR5 antagonistic activity)
Conditions: test compound 1 μM, [125I]-RANTES as ligand, room temperature; for inhibition at 1 µM: 40 min, read-out: Binding Inhibitory Ratio (%); for Binding Inhibitory Ratio (%): 40 minutes
Description: Cloning of CCR5 gene from human spleen cDNA was conducted using the PCR method. Using spleen cDNA (0.5 ng) (TOYOBO CO., LTD, QUICK-Clone cDNA) as a template, PCR was performed in a DNA Thermal Cycler 480 (manufactured by Perkin Elmer) (reaction conditions: 30 cycles of 95° C. for 1 minute, 60° C. for 1 minute, and 75° C. for 5 minutes) by adding primer sets, SEQ. ID NO: 1 (sequence length: 34; sequence type: nucleic acid; chain number: single strand; topology: linear; kind of sequence: other nucleic acid synthetic. DNA) described in Experimental. Example (1) of WO 99/32100, and SEQ ID NO: 2 (sequence length: 34; sequence type: nucleic acid; chain number: single strand; topology: linear; kind of sequence: other nucleic acid synthetic. DNA) described in Experimental. Example (1) of WO 99/32100, (25 pmol, respectively), which were prepared referring to the nucleotide sequence of CCR5 gene, as reported by Samson et al. (Biochemistry 35 (11), 3362-3367 (1996)) and by using TaKaRa. EX Taq (Takara Shuzo). The resultant. PCR product was subjected to agarose gel electrophoresis to collect an approximately 1.0 kb. DNA fragment, which was subjected to an Original TA Cloning Kit (Funakoshi Co., Ltd.) to carry out cloning of CCR5 gene.
The plasmid obtained above was digested with restriction enzymes XbaI (Takara Shuzo Co., Ltd.) and BamHI (Takara Shuzo Co., Ltd.), and then subjected to agarose gel electrophoresis to collect DNA fragment of about 1.0 kb. The DNA fragment and plasmid pcDNA 3.1 (Funakoshi. Co., Ltd.) for expression in animal cells, which was previously digested with XbaI and BamHI, were mixed and ligated by DNA Ligation Kit Ver. 2 (Takara Shuzo Co., Ltd.). The resulting plasmid was subjected to transformation into. E. coli JM109 competent cells (Takara Shuzo Co., Ltd.) to obtain plasmid pCKR5.
CHO-K1 cells were cultured in a 750-ml tissue culture flask (Becton, Dickinson and Company.) using. Ham F12 medium (NIHON PHARMACEUTICAL CO., LTD.) containing 10% fetal bovine serum (Lifetech Oriental) and were collected using 0.5 g/L trypsin-0.2 g/L EDTA (Lifetech Oriental). The cells were washed with PBS (Lifetech Oriental), centrifuged (1000 rpm, 5 minutes), and suspended in PBS. The DNA was introduced into the cells using a Gene Pulser (Bio-Rad Laboratories, Inc.) under the following conditions. Namely, 8×10^6 cells and 10 μg of plasmid pCKR5 for expression of human CCR5 were placed in a cuvette having a 0.4-cm gap, and electroporation was carried out with a voltage 0.25 kV and 960 μF of capacitance. Then, the cells were transferred into Ham's. F12 medium containing 10% fetal bovine serum, and incubated for 24 hours. The cells were collected, centrifuged, and suspended in Ham' F12 medium containing 10% fetal bovine serum and Geneticin (Lifetech Oriental) at a concentration of 500 μg/ml. The suspension of cells was diluted to a concentration of 10^4 cells/ml, and was inoculated onto 96-well plate (Becton Dickinson), to obtain Geneticin-resistant strain.
Then, resulting. Geneticin-resistant strain were cultured on 96-well plate (Becton Dickinson), and CCR5-expressing cells were selected from the resistant cells. Namely, in an assay buffer, (Ham's F12 medium containing 0.5% BSA, and 20 mM HEPES (Wako Pure Chemical Ind., pH 7.2)) to which was added […][125I]-RANTES (Amersham) as a ligand, the cells were subjected to a binding reaction at room temperature for 40 minutes. Wells containing the cells were washed with ice-cooled PBS, and 50 μl/well of 1M NaOH was added and stirred. The cells to which the ligand was bound specifically, i.e., CCR5/CHO cells, were selected by measurement of radioactivity using a […].
The CCR5/CHO cells were inoculated onto 96-well microplate at a concentration of 5×10^4 cells/well, and were cultured for 24 hours. After removal of the medium by aspiration, to each well was added an assay buffer containing a test compound (1 μM), and [125I]/RANTES (Amersham) used as a ligand at a concentration of […]. […]

T1 sequence (P51681 whole entry): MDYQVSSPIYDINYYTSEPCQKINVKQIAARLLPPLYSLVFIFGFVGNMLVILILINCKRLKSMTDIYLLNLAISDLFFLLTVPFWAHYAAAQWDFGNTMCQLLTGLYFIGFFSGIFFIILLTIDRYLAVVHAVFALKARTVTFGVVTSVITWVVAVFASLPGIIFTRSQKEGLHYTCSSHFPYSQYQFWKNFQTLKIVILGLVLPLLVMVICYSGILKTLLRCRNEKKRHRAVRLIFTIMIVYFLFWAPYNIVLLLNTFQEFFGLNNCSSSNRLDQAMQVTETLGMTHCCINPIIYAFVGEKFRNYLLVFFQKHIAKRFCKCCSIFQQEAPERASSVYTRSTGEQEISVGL

CCCCOCCOc1ccc(-c2ccc3c(c2)C=C(C(=O)Nc2ccc([C@H](O)c4cccc[n+]4[O-])cc2)CCN3CC(C)C)cc1 [Compound 85, 7-[4-(2-butoxyethoxy)phenyl]-N-[4-[(S)-hydroxy(1-oxidopyridin-2-yl)methyl]phenyl]-1-isobutyl-2,3-dihydro-1H-1-benzazepine-4-carboxamide]
inhibition at 1 µM: 92%

CCCCOCCOc1ccc(-c2ccc3c(c2)C=C(C(=O)Nc2ccc([S+]([O-])Cc4cncn4CCC)cc2)CCN3CCC)cc1 (stereo not shown) [Compound 375, 7-[4-(2-butoxyethoxy)phenyl]-1-propyl-N-[4-[[[1-propylimidazol-5-yl]methyl]sulfinyl]phenyl]-2,3-dihydro-1-benzazepine-4-carboxamide]
inhibition at 1 µM: 92%

CCCCOCCOc1ccc(-c2ccc3c(c2)C=C(C(=O)Nc2ccc(SCc4nncn4C)cc2)CCN3CC(C)C)cc1 [Compound 130, 7-[4-(2-butoxyethoxy)phenyl]-N-[4-(4-methyl-4H-1,2,4-triazol-3-ylmethylthio)phenyl]-1-isobutyl-2,3-dihydro-1H-1-benzazepine-4-carboxamide]
inhibition at 1 µM: 100%

CCCCOCCOc1ccc(-c2ccc3c(c2)C=C(C(=O)Nc2ccc([S+]([O-])Cc4cccnn4)cc2)CCN3CC(C)C)cc1 (stereo not shown) [Compound 259, 7-[4-(2-butoxyethoxy)phenyl]-1-isobutyl-N-[4-[(3-pyridazinylmethyl)sulfinyl]phenyl]-2,3-dihydro-1-benzazepine-4-carboxamide]
inhibition at 1 µM: 88%

CCCCOCCOc1ccc(-c2ccc3c(c2)C=C(C(=O)Nc2ccc(OCc4nncn4CCC)cc2)CCN3CC(C)C)cc1 [Compound 26, 7-[4-(2-butoxyethoxy)phenyl]-1-isobutyl-N-[4-[(4-propyl-4H-1,2,4-triazol-3-yl)methoxy]phenyl]-2,3-dihydro-1H-1-benzazepine-4-carboxamide]
inhibition at 1 µM: 97%

C#CCn1cncc1C[S+]([O-])c1ccc(NC(=O)C2=Cc3cc(-c4ccc(OCCOCCCC)cc4)ccc3N(CC(C)C)CC2)cc1 (stereo not shown) [Compound 443, 7-[4-(2-butoxyethoxy)phenyl]-1-isobutyl-N-[4-[[(1-(2-propin-1-yl)imidazol-5-yl)methyl]sulfinyl]phenyl]-2,3-dihydro-1H-1-benzazepine-4-carboxamide]
Binding Inhibitory Ratio (%): 100%

CCCCOCCOc1ccc(-c2ccc3c(c2)C=C(C(=O)Nc2ccc([S+]([O-])Cc4cncn4CCC)cc2)CCN3CC(C)C)cc1 (stereo not shown) [Compound 371, 7-[4-(2-butoxyethoxy)phenyl]-1-isobutyl-N-[4-[[[1-propylimidazol-5-yl]methyl]sulfinyl]phenyl]-2,3-dihydro-1-benzazepine-4-carboxamide]
inhibition at 1 µM: 100%

CCCCOCCOc1ccc(-c2ccc3c(c2)C=C(C(=O)Nc2ccc(S(=O)(=O)Cc4nccn4CCCC(=O)NC)cc2)CCN3CC(C)C)cc1 [Compound 425, 7-[4-(2-butoxyethoxy)phenyl]-N-[4-[[[1-[4-(methylamino)-4-oxobutyl]-1H-imidazol-2-yl]methyl]sulfonyl]phenyl]-1-isobutyl-2,3-dihydro-1H-1-benzazepine-4-carboxamide]
inhibition at 1 µM: 100%

CCCCOCCOc1ccc(-c2ccc3c(c2)C=C(C(=O)Nc2ccc([S+]([O-])Cc4cncn4CCC)cc2)CCN3CC(C)C)cc1 (single isomer, unassigned; (-)) [Compound 373, (−)-7-[4-(2-butoxyethoxy)phenyl]-1-isobutyl-N-[4-[[[1-propylimidazol-5-yl]methyl]sulfinyl]phenyl]-2,3-dihydro-1-benzazepine-4-carboxamide]
Binding Inhibitory Ratio (%): 94%

CCCCOCCOc1ccc(-c2ccc3c(c2)C=C(C(=O)Nc2ccc([S+]([O-])Cc4nccn4C4CC4)cc2)CCN3CC(C)C)cc1 (stereo not shown) [Compound 367, 7-[4-(2-butoxyethoxy)phenyl]-N-[4-[[[1-cyclopropylimidazol-2-yl]methyl]sulfinyl]phenyl]-1-isobutyl-2,3-dihydro-1-benzazepine-4-carboxamide]
inhibition at 1 µM: 96%

CCCCOCCOc1ccc(-c2ccc3c(c2)C=C(C(=O)Nc2ccc([S+]([O-])Cc4nnnn4CC)cc2)CCN3CC(C)C)cc1 (stereo not shown) [Compound 242, 7-[4-(2-butoxyethoxy)phenyl]-1-isobutyl-N-[4-[[(1-ethyl-tetrazol-5-yl)methyl]sulfinyl]phenyl]-2,3-dihydro-1-benzazepine-4-carboxamide]
inhibition at 1 µM: 94%

CCCCOCCOc1ccc(-c2ccc3c(c2)C=C(C(=O)Nc2ccc([S+]([O-])Cc4cccnc4C)cc2)CCN3CC(C)C)cc1 (stereo not shown) [Compound 251, 7-[4-(2-butoxyethoxy)phenyl]-1-isobutyl-N-[4-[[(2-methyl-3-pyridinyl)methyl]sulfinyl]phenyl]-2,3-dihydro-1-benzazepine-4-carboxamide]
inhibition at 1 µM: 99%

CCCCOCCOc1ccc(-c2ccc3c(c2)C=C(C(=O)Nc2ccc([S+]([O-])Cc4cccnc4)c(OC)c2)CCN3CC(C)C)cc1 (stereo not shown) [Compound 240, 7-[4-(2-butoxyethoxy)phenyl]-1-isobutyl-N-[3-methoxy-4-[(3-pyridinylmethyl)sulfinyl]phenyl]-2,3-dihydro-1-benzazepine-4-carboxamide]
inhibition at 1 µM: 97%

CCCCOCCOc1ccc(-c2ccc3c(c2)C=C(C(=O)Nc2ccc(SCCn4cnnc4)cc2)CCN3CC(C)C)cc1 [Compound 154, 7-[4-(2-butoxyethoxy)phenyl]-N-[4-(4H-1,2,4-triazol-4-ylethylthio)phenyl]-1-isobutyl-2,3-dihydro-1H-benzazepine-4-carboxamide]
inhibition at 1 µM: 100%

CCCCOCCOc1ccc(-c2ccc3c(c2)C=C(C(=O)Nc2ccc([S+]([O-])Cc4nccn4CCCC(N)=O)cc2)CCN3CC(C)C)cc1 (single isomer, unassigned; (-)) [Compound 418, (−)-N-[4-[[[1-(4-amino-4-oxobutyl)-1H-imidazol-2-yl]methyl]sulfinyl]phenyl]-7-[4-(2-butoxyethoxy)phenyl]-1-isobutyl-2,3-dihydro-1H-1-benzazepine-4-carboxamide]
inhibition at 1 µM: 92%

CCCCOCCOc1ccc(-c2ccc3c(c2)C=C(C(=O)Nc2ccc([S+]([O-])Cc4nc(C)cc(C)n4)cc2)CCN3CC(C)C)cc1 (stereo not shown) [Compound 230, 7-[4-(2-butoxyethoxy)phenyl]-N-[4-[[(4,6-dimethyl-2-pyrimidinyl)methyl]sulfinyl]phenyl]-1-isobutyl-2,3-dihydro-1-benzazepine-4-carboxamide]
inhibition at 1 µM: 98%

CCCCOCCOc1ccc(-c2ccc3c(c2)C=C(C(=O)Nc2ccc(SCc4nccn4CCCO)cc2)CCN3CC(C)C)cc1 [Compound 436]
Binding Inhibitory Ratio (%): 100%

CCCCOCCOc1ccc(-c2ccc3c(c2)C=C(C(=O)Nc2ccc(CSc4nncn4C)cc2)CCN3CC(C)C)cc1 [Compound 117, 7-[4-(2-butoxyethoxy)phenyl]-N-[4-(4-methyl-4H-1,2,4-triazol-3-ylthiomethyl)phenyl]-1-isobutyl-2,3-dihydro-1H-1-benzazepine-4-carboxamide]
inhibition at 1 µM: 95%

CCCCOCCOc1ccc(-c2ccc3c(c2)C=C(C(=O)Nc2ccc(SCc4cnc5n4CCCC5)cc2)CCN3CC(C)C)cc1 [Compound 404, 7-[4-(2-butoxyethoxy)phenyl]-1-isobutyl-N-[4-[[(5,6,7,8-tetrahydroimidazo[1,2-a]pyridin-3-yl)methyl]thio]phenyl]-2,3-dihydro-1H-1-benzazepine-4-carboxamide]
inhibition at 1 µM: 85%
